Assay results taken from patent US6593342B1, “Pharmaceutical compositions comprising 2-quinolones” (Laboratoire L. Lafon, priority 1998, dated 2003).

How the values were obtained:
MCF7 [1] = experiment: Clonogenic test (soft agar colony growth), MCF7; format: cell-based, human; conditions: 21 days, control = 100%, mean ± SEM
Source text: 1—Interaction (Stimulation or Inhibition of Proliferation) With the Generation of Clonogenic Cells (Clonogenic Test)
The test used is that described by Hamburger et al. (Science, 1977; 197, 461-463) and Salmon et al. (New England J. Med., 298, 1321-1327). A cell is considered clonogenic if it has the capacity to proliferate and to give rise to a cell colony. “Human tumor stem cells” are the cells which are the source of the neoplastic cells which constitute a given tumor. These tumor stem cells are responsible for the relapse processes which may be observed after surgical resection of primary tumors and are also responsible for the formation of metastases. In a tumor or a tumor cell line, these clonogenic stem cells differ from the other cells of the tumor or from the neoplastic cell line under consideration in that they conserve their capacity to proliferate in the absence of any solid support.
In this test, the tumor cells are cultured on a semi-solid support consisting of agar. […] In a tumor cell population, cultured on such a support, it is these clonogenic cells (associated with an unlimited number of cell divisions and whose proliferation is referred to by M. I. Dawson as “anchorage-independent [clonal] growth”) which are capable of growing. The percentage of these clonogenic cells in a tumor or a cell line ranges between 0.1% and 0.001%.
The influence of the compounds of formulae (I) and (Ia) on the growth of the cell colonies obtained by culturing, for example, the mammalian tumor lines MCF7 and MXT and the colorectal line HT-29 on the semi-liquid culture medium known as “soft agar” was measured. On such a medium, only the clonogenic cells referred to by M. I. Dawson as “anchorage-independent (clonal) cells” survive and grow. The growth of these cells in such a “non-adherent” mode bears witness to their degree of tumorigenicity. The inhibition of the growth of the size of a tumor in which a larger number of clonogenic cells has developed then becomes the evidence of reinforced cytotoxic activity.
Conversely, this test can also reveal that a compound is capable of inhibiting the generation/proliferation of clonogenic cells, thus making the tumor less able to grow and thus reducing the population of tumor cells.
The tumor cell lines studied are maintained in culture in 25 cm^2 falcon dishes. They are then trypsinized and the cells are fully dissociated from each other. The percentage of live cells is determined after staining with trypan blue. A cell suspension at a concentration of from 5·10^4 to 15·10^4 cells/ml (depending on the cell type under consideration) is prepared in a 0.3% agar solution. Next, 200 μl of this suspension are inoculated in Petri dishes 35 mm in diameter, in which are placed 3 ml of a base layer consisting of a 0.5% agar solution. The 200 μl of cell suspension are in turn covered with 1.8 ml of an upper layer consisting of a 0.3% agar solution. The dishes are then placed in an incubator at 37° C., 5% CO2 and 70% humidity until the treatment. This treatment is carried out about 1 to 2 hours after the inoculation. The test compounds are prepared at a concentration 100 times greater than the desired concentration and 50 μl of these treating solutions are placed over the upper layer of agar in the corresponding dishes. In the present study, the final concentration of the test products is 10^−5, 10^−7 and 10^−9 M. The dishes are then kept in an incubator for 21 days. On the 21st day the dishes are treated by depositing on the upper layer 100 μl of a 1 mg/ml solution of MTT (3-(4,5-dimethylthiazol-2-yl)-2,5-diphenyltetrazolinium bromide prepared with RPMI 1640 medium) for 3 h at 37° C. After this period, the cell colonies are fixed by adding 2 ml of formalin per dish. After fixing for 24 hours, the formalin is evaporated off and the number of stained cell colonies, thus consisting of metabolically active cells, and whose surface area is greater than 100 μm^2, is determined using an inverted microscope. […]

A549 = experiment: MTT test, A549; format: cell-based; conditions: Homo sapiens, 10^−5 M, 72 hours, control = 100%, mean ± SEM, read-out: average optical density (MTT), percentage relative to control
Experimental: (§1) The influence of the compounds of formulae (I) and (Ia) on non-clonogenic cells was evaluated with the aid of the MTT calorimetric test.
(§2) The principle of the MTT test is based on the mitochondrial reduction, by the metabolically active live cells, of the yellow-colored product MTT (3-(4,5-dimethylthiazol-2-yl)-2,5-diphenyltetrazolium bromide) to a blue-colored product, formazan. The amount of formazan thus obtained is directly proportional to the amount of live cells present in the culture well(s). This amount of formazan is measured by spectrophotometry.
(§3) The cell lines are maintained as a monolayer culture at 37° C. in stoppered culture dishes containing MEM 25 MM HEPES (Minimum Essential Medium) base medium. This medium is suited to the growth of a range of various mammalian diploid or primary cells. This medium is then supplemented with:
(§4) an amount of 5% of FCS (Foetal Calf Serum) decomplemented at 56° C. for 1 hour,
(§5) 0.6 mg/ml of L-glutamine,
(§6) 200 μg/ml of streptomycin,
(§7) The 12 human cancer cell lines which were used were obtained from the American Type Culture Collection (ATCC, Rockville, Md., USA). These 12 cell lines are:
A549 (code ATCC: CCL-185) and A-427 (code ATCC: HTB-53) which are two non-small-cell lung cancers,
(§8) Experimentally: 100 μl of a cell suspension containing 20 000 to 50 000 (depending on the cell type used) cells/ml of culture medium are inoculated in 96-well flat-bottomed multi-well plates and are incubated at 37° C., under an atmosphere comprising 5% CO2 and 70% humidity. After incubation for 24 hours, the culture medium is replaced with 100 μl of fresh medium containing either the various test compounds at concentrations ranging from 10^−5 to 10^−10 M or the solvent used to dissolve the test products (control condition). After incubation for 72 hours under the above conditions, the culture medium is replaced with 100 μl of a yellowish solution of MTT dissolved at a rate of 1 mg/ml in RPMI 1640. The microplates are reincubated for 3 hours at 37° C. and are then centrifuged for 10 minutes at 400×g. The yellowish solution of MTT is removed and the blue formazan crystals formed in the cell are dissolved in 100 μl of DMSO. The microplates are then shaken for 5 minutes. The intensity of the resulting blue coloration, and thus of the conversion of the yellow product MTT into blue formazan by the cells that are still alive at the end of the experiment, is quantified by spectrophotometry using a Dynatech Immunoassay System machine at wavelengths of 570 nm and 630 nm corresponding, respectively, to the maximum absorption wavelengths of formazan and to the background noise. Software incorporated in the spectrophotometer calculates the average optical density values and the standard deviation (SD) and standard error of mean (SEM) values.
(§9) By way of example, the results of the average optical density, expressed as a percentage relative to the average optical density measured under the control condition (set equal to 100%), obtained at a concentration of 10^−5 M on the 12 abovementioned tumor cell lines are given in Table II.

MCF7 [2] = experiment: MTT test, MCF7; format: cell-based; conditions: Homo sapiens, 10^−5 M, 72 hours, control = 100%, mean ± SEM, read-out: average optical density (MTT), percentage relative to control
Experimental: as §1, §2, §3, §4, §5, §6, §7
T-47D (code ATCC: HTB-133) and MCF7 (code ATCC: HTB-22) which are two breast cancers,
as §8, §9

SMILES	average number of clones of clonogenic cells, percentage relative to control (MCF7 [1]; 10^−5 M) [%]	average number of clones of clonogenic cells, percentage relative to control (MCF7 [1]; 10^−7 M) [%]	average number of clones of clonogenic cells, percentage relative to control (MCF7 [1]; 10^−9 M) [%]	viability at 10 µM (A549) [%]	viability at 10 µM (MCF7 [2]) [%]
CCN(CC)C(=O)Cn1c(=O)c(-c2ccc(OC)cc2)cc2c(OC)cc(OC)cc21 [CRL8315, N,N-Diethyl-2-[5,7-dimethoxy-3-(4-methoxy-phenyl)-2-oxo-1,2-dihydro-1-quinolinyl]acetamide]	119.6 ± 5.6	127 ± 8.8	157.1 ± 12.2	76.1 ± 2.4	96.2 ± 1.7
COc1ccc(-c2cc3c(OC)cc(OC)cc3n(CCN(C)C)c2=O)cc1 [CRL8316, 1-[2-(Dimethylamino)ethyl]-5,7-dimethoxy-3-(4-methoxyphenyl)-1,2-dihydro-2-quinolinone]	23.2 ± 1.8	84 ± 5	83.4 ± 4.6	84.2 ± 1.9	78.9 ± 4
COc1ccc(-c2cc3c(OC)cc(OC)cc3n(CCC#N)c2=O)cc1 [CRL8247, 3-[5,7-Dimethoxy-3-(4-methoxyphenyl)-2-oxo-1,2-dihydro-1-quinolinyl]propanenitrile]	51.5 ± 2.8	81.9 ± 1.2	98.3 ± 4.2	81.3 ± 1.9	78.9 ± 1.1
CCN(CC)C(=O)CCn1c(=O)c(-c2ccc(OC)cc2)cc2c(OC)cc(OC)cc21 [CRL8283, N,N-Diethyl-3-[5,7-dimethoxy-3-(4-methoxy-phenyl)-2-oxo-1,2-dihydro-1-quinolinyl]propanamide]	56.5 ± 4.9	106.2 ± 4.8	97.4 ± 5.8	63.6 ± 4.2	76.2 ± 0.9
COc1ccc(-c2cc3c(OC)cc(OC)cc3n(CCc3nnn[nH]3)c2=O)cc1 [CRL8256, 1-[2-(1H-1,2,3,4-Tetrazol-5-yl)ethyl]-5,7-dimethoxy-3-(4-methoxyphenyl)-1,2-dihydro-2-quinolinone]	51.6 ± 3.7	83.8 ± 3.4	97.9 ± 5.6	56.5 ± 3.7	81.8 ± 1.6
COc1ccc(-c2cc3c(OC)cc(OC)cc3[nH]c2=O)cc1 [CRL8246, 5,7-Dimethoxy-3-(4-methoxyphenyl)-1,2-dihydro-2-quinolinone]	126.8 ± 9.9	145.7 ± 8.9	139.1 ± 6.6	113 ± 2.1	98.1 ± 1.4
